The record followed here is patent US10729636B2, “Compositions comprising peptide [sequence]” (NURITAS LIMITED, priority 2016, dated 2020).

One assay concerns GLUT-4. The experiment in a line: GLUT-4 translocation (membrane fraction ELISA). As to conditions: HSKMC cells, 2 hrs, FIG. 8. The assay is classed as cell-based, Human. The procedure: […] Upon completion of treatment, cell membrane proteins were collected. Briefly, cells were harvested from the wells with a cell scraper and centrifuged at 300×g for 5 min. The cell pellet was washed with 300 ul of cell wash solution and then re centrifuged at 300×g for 5 min. The supernatant was discarded and the cells resuspended in 1.5 ml of cell wash solution and transferred to a 2 ml centrifuge tube. The cells were then centrifuged at 300×g for 5 min and the supernatant discarded. 150 ul of permeabilization buffer was added to the cell pellet and vortexed briefly to obtain a homogenous cell suspension. The suspension was then incubated at 4° C. for 10 min with constant mixing. […] The supernatant containing solubilized membrane and membrane associated proteins fractions was transferred to a new tube and stored at −80° C. until ready for assessment.
GLUT-4 was assessed in the cell membrane fractions using a sandwich ELISA from LSBio. […] 50 ul of stop solution was added to each well and the optical density of the sample was determined using a microplate reader set to 450 nm. GLUT-4 concentration in the samples was calculated off the standard curve after generating a four-parameter logistic (4-PL) curve fit. Sample concentration read of the curve was then adjusted by multiplying the results by the dilution factor.
A general note: An ELISA detects its analyte on a solid surface through an enzyme-linked reagent.

For assay [1], the system named is mTOR phosphorylated at Ser2448. Put plainly: Muscle protein synthesis (Phospho-mTOR assay). The assay is classed as cell-based. As to conditions: HSkMC cells, 2 hours, FIG. 9. The procedure: Phospho-mTOR sandwich ELISA detects endogenous levels of phosphorylated mTOR at Ser2448.
Day 1: Seed HSkMC cells in 500 uL/well of HSkMC Growth Medium and let them adhere to the wells for 16-24 h.
Day 2: Remove growth medium and add 500 uL/well of HSkMC Differentiation Medium to let them differentiate for 5-7 days.
Day 7: Treat cells for 2 hours. Collect cell lysates in lysis buffer.
Day 8: Perform BCA (protein determination) and run the assay. In a first incubation step, a mTOR antibody coated onto the ELISA microwells is used to capture mTOR (phospho and non-phospho) from the cell lysates. Then, following extensive washing, a specific phospho-mTOR detection antibody is added to detect only the phospho-mTOR protein captured before. Finally, a HRP-linked antibody is used to recognise the detection antibody and through the addition of TMB (HRP substrate) develop color proportionally to the quantity of mTOR phosphorylated at Ser2448.

In another assay the test system is HSkMC cells. The experiment in a line: QPCR on specific genes of interest. Type of assay: cell-based. The note with it: 0.5 ug/ml, normalised by B2M, over control. The procedure: A volume of 2 ml of HSkMC cells were seeded in a 6 cm plate, pre-coated with collagen, at a concentration of 2×10^5 cells. Cells were allowed to adhere overnight at 37° C. 5% CO2 and the following day the growth media was replaced with 2 ml of cell differentiation media and returned to the incubator at 37° C. 5% CO2. The cell differentiation media was changed every 2 days for a period of 6 days, until the HSkMC cells were fully differentiated into myotubes. On day 7, the cell differentiation media was replaced with 2 ml of basal media and starved overnight at 37° C. 5% CO2.
On the day of the experiment, the starvation media was removed and replaced with 2 ml of basal media containing 0.5 ug/ml of SEQUENCE ID NO: 1. Untreated cells were run in parallel. The cells were incubated in this treatment for a period of 20 min at 37° C. 5% CO2, at which point the treatment media was removed and the cells were scraped in 1 ml of PBS. The cell suspension was pelleted in a microcentrifuge at 1500 rpm for 5 min, and the supernatant was removed. The cells were immediately flash frozen in liquid nitrogen and transferred to a −80° C. freezer for storage until dispatched to CROs.
Quantitative PCR was performed using a TaqMan probe based method, where target mRNA expression was quantified relative to the expression of the B2M housekeeping gene. A master mix containing primer/probe and Taqman® Gene Expression Master Mix (ABI Biosystems, CA, USA) was added to 1 μl of cDNA template. A final volume of 10 μl was pipetted into a well of a 96-well Lightcycler plate (Sarstedt, Nümbrecht, Germany) in duplicate and real time PCR was performed on a Roche Lightcycler 96 (Roche Diagnostics, Basal, Switzerland) real time thermal cycler. The threshold cycle (Ct) for each well was calculated using the instrument software. Data analysis was based on the ΔΔCt method with raw data normalised by the B2M housekeeping gene included on the plate. Results are expressed as fold change over control.
QPCR results (methods of treatment remains the same; concentration of SEQ ID 1 remains 0.5 ug/ml)

Take WKDEAGKPLVK [SEQ ID NO. 1]: the GLUT4 translocation result in the assay on GLUT-4 (0.05 ug/ml) and with GLUT-4 (5 ug/ml) was “increase” in each case. Further, the mTOR result in assay [1] (0.5 μg/ml) and in assay [1] (5 μg/ml) was “increase” in each case. Also, the Fold change with HSkMC cells (ACVR2B) turned out to be 0.48 fold; in the assay with HSkMC cells (Adiponectin), 1.07 fold; with HSkMC cells (COX4I1), 0.85 fold; in the assay with HSkMC cells (FBXO32) it was 1.00 fold; in the assay with HSkMC cells (GLUT4), 1.95 fold; with HSkMC cells (HSPA2), 0.67 fold. The Fold change is given as 1.20 fold in the assay on HSkMC cells (LEPR); 0.51 fold in the assay on HSkMC cells (Leptin); 0.17 fold in the assay on HSkMC cells (MSTN); 0.70 fold in the assay with HSkMC cells (MYOG); 0.54 fold in the assay on HSkMC cells (NRF1); 0.69 fold in the assay on HSkMC cells (PPARGC1A). Besides, the Fold change in the assay on HSkMC cells (PRKAG3) is 0.35 fold; in the assay with HSkMC cells (SIRT), 0.41 fold; in the assay on HSkMC cells (TRIM63) it was 0.70 fold; in the assay with HSkMC cells (UQCRB) it was 2.56 fold.
